Tested on: male Zucker rats
Test: Carcass weight and carcass lipid and protein levels in male Zucker rats
Type: in vivo, rat
Conditions: 29 days; for Carcass Protein % of carcass weight / Carcass Protein total / Carcass Lipids % of carcass weight / Carcass Lipids total / Carcass Weight: mean ± S.E.
Description: In one study, carcass composition was determined. After treatment, rats were sacrificed by decapitation, and livers and blood were removed. Carcasses were weighed, saponified in alcoholic potassium hydroxide, acidified and extracted with petroleum ether. The petroleum ether supernatants were transferred to preweighed glass vials, evaporated immediately to dryness under nitrogen and reweighed. Total carcass data are expressed in grams and percentages of carcass weight. An aliquot of saponified carcass extract was neutralized, and total carcass nitrogen was determined using Kjeldahl procedure. Carcass protein data are expressed in grams and percentages of carcass weight.
^a Four month old male Zucker rats (four per group) were fed G70:1%
corn oil diet ad libitum for 24 days prior to treatment.
1[4(1H--imidazol1-yl)phenyl]ethanone was then mixed into the G70:1% corn
oil diet and rats were fed ad libitum for 29 days. On day 29 rats were
killed by decapitation and the carcasses (minus liver and blood) were
analyzed for total lipid and protein. Each value is the mean ± S.E.
^b Amount of 1[4(1H--imidazol1-yl)phenyl]ethanone ingested per day pe
^c Values in parentheses indicate percent of control.

[1] = Lean, 98 mg per day per kg in diet
[2] = Lean, 98 mg per day per kg in diet, P ≤ 0.05
[3] = Obese, 87 mg per day per kg in diet

What does the source list for `CC(=O)c1ccc(-n2ccnc2)cc1` [1-[4-(1H--imidazol-1-yl)phenyl]ethanone, 1-[4-(1H-imidazol-1-yl)phenyl]ethanone]?
Carcass Lipids % of carcass weight, percent of control [1]: 60% of control; Carcass Lipids total, percent of control [1]: 50% of control; Carcass Protein % of carcass weight, percent of control [1]: 111% of control; Carcass Protein total, percent of control [1]: 87% of control; Carcass Weight, percent of control [1]: 84% of control; Carcass Protein % of carcass weight [1]: 21 ± 2 % of carcass weight; Carcass Protein total [1]: 75 ± 5 g; Carcass Lipids % of carcass weight [2]: 8 ± 1 % of carcass weight; Carcass Lipids total [2]: 29 ± 5 g; Carcass Weight [2]: 361 ± 27 g; Carcass Lipids % of carcass weight, percent of control [3]: 104% of control; Carcass Lipids total, percent of control [3]: 86% of control; Carcass Protein % of carcass weight, percent of control [3]: 131% of control; Carcass Protein total, percent of control [3]: 109% of control; Carcass Weight, percent of control [3]: 83% of control; Carcass Lipids % of carcass weight [3]: 49 ± 1 % of carcass weight; Carcass Lipids total [3]: 225 ± 6 g; Carcass Protein % of carcass weight [3]: 18 ± 2 % of carcass weight; Carcass Protein total [3]: 81 ± 4 g; Carcass Weight (Obese, 87 mg per day per kg in diet, P ≤ 0.05): 460 ± 28 g

— US4731363A, “Thromboxane synthase inhibitors as insulin lowering agents and antiobesity agents” (priority 1986, dated 1988)
